Several values for one entry are separate records, joined by “and”; a condition that tells them apart may be missing. Equal entries are not always repeated. Inconclusive results are not listed. Activity calls are given as the source filed them.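 How the source made its calls: active means Compounds whose fitted IC50 for cell-normalized streptokinase activity falls within a set log distance above the top dose; inactive means IC50 further above the top dose than that limit.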

Usually IC50 stands for the midpoint of a concentration-inhibition curve.

This experiment has as its target S. pyogenes M1 GAS, streptokinase activity/viability, OD405, 6 h. Kind of experiment: viability-normalized secreted streptokinase activity reduction – plasminogen activation absorbance, OD405, dose response (AID 1914).
For `Cc1ccc(C(O)(C(=O)NNc2ccc3ccccc3n2)c2ccc(C)cc2)cc1`, the IC50 was > 15 µM (inactive). On to `CNC(CC(C)C)C(=O)NC1C(=O)NC(CC(N)=O)C(=O)NC2C(=O)NC3C(=O)NC(C(=O)NC(C(=O)O)c4cc(O)cc(O)c4-c4cc3ccc4O)C(O)c3ccc(c(Cl)c3)Oc3cc2cc(c3OC2OC(CO)C(O)C(O)C2OC2CC(C)(N)C(O)C(C)O2)Oc2ccc(cc2Cl)C1O` (stereo unspecified), for which the IC50 is > 15 µM (inactive). With `CN(C)c1ccnc2c[cH-]cc12.[Fe].c1ccc(-[c-]2[c-](-c3ccccc3)[c-](-c3ccccc3)[c-](-c3ccccc3)[c-]2-c2ccccc2)cc1` (stereo unspecified), the IC50 is 2.11 µM and 2.6 µM. In the case of `CCCCCCCCCCCCCCCCn1cc[n+](C)c1` it was > 15 µM (inactive). In the case of `Cc1ccc(C[n+]2c(-c3ccc(C)cc3)cc(-c3ccc(C)cc3)cc2-c2ccc(C)cc2)cc1` it was 3.61 µM. In the case of `CCN1/C(=C\C=C\C2=[N+](CC)c3ccccc3C2(C)C)C(C)(C)c2ccccc21` it was 15.6 µM.

The values above are taken from PubChem BioAssay AID1914 (Broad Institute, 2009).
